Measurements published in patent US7037937B2, “Cytotoxic compounds” (Parker Hughes Institute, priority 2001, dated 2006).

Assays:
MOLT-3 Lymphoma = assay: MTT assay, antiproliferative activity against MOLT-3; format: cell-based; conditions: Homo sapiens, 24–36 hours drug exposure, 1.0 to 250 μM
Source text: (§1) The following human cancer cell lines were used in the present study: human leukemic cell lines Molt-3 and NALM-6. These cell lines were obtained from American Type Culture Collection (Manassas, Va.) and maintained as continuous cell lines in Dulbecco's modified Eagles's medium supplemented with 10% fetal bovine serum and antibiotics.
(§2) The antiproliferative activity of the COBRA compounds was examined against a panel of 2 different human tumor cell lines using standard MTT (3-[4,5-dimethylthiazol-2-yl]-2,5-diphenyl tetrazolium bromide) assays (Narla, R. K., Liu, X. P., Klis, D. and Uckun, F. M., Clin. Cancer Res., 1998, 4, 2463), (Boehringer Mannheim Corp., Indianapolis, Ind.). Briefly, exponentially growing brain tumor cells were seeded into a 96-well plate at a density of 2.5×10^4 cells/well and incubated for 36 hours at 37° C. prior to drug exposure. On the day of treatment, culture medium was carefully aspirated from the wells and replaced with fresh medium containing the test compounds at concentrations ranging from 1.0 to 250 μM. Triplicate wells were used for each treatment. The cells were incubated with the various compounds for 24–36 hours at 37° C. in a humidified 5% CO2 atmosphere. To each well, 10 μl of MTT (0.5 mg/ml final concentration) was added and the plates were incubated at 37° C. for 4 hours to allow MTT to form formazan crystals by reacting with metabolically active cells. The formazan crystals were solubilized overnight at 37° C. in a solution containing 10% SDS in 0.01 M HCl. The absorbence of each well was measured in a microplate reader (Labsystems) at 540 nm and a reference wavelength of 690 nm. To translate the OD 540 values into the number of live cells in each well, the OD 540 values were compared to those on standard OD 540—versus—cell number curves generated for each cell line. The percent survival was calculated using the formula: survival=Live cell number[test]×100/Live cell number [control].
(§3) IC50 values were calculated by non-linear regression analysis using an Graphpad Prism software version 2.0 (Graphpad Software, Inc., San Diego, Calif.).

NALM-6 Leukemia = assay: MTT assay, antiproliferative activity against NALM-6; format: cell-based; conditions: Homo sapiens, 24–36 hours drug exposure, 1.0 to 250 μM
Source text: as §1, §2, §3

## CCCCCCCCCCCCC(O)c1[nH]cnc1C (centres unmarked) [AC-15]
MOLT-3 Lymphoma
  IC50: 9 µM
NALM-6 Leukemia
  IC50: 25 µM

## CCCCCCCCCCCCC(O)c1cccs1 (centres unmarked) [AC-10]
MOLT-3 Lymphoma
  IC50: 125 µM
NALM-6 Leukemia
  IC50: 204 µM

## CCCCCCCCCCCCC(O)c1ncc[nH]1 (centres unmarked) [AC-14]
MOLT-3 Lymphoma
  IC50: 58 µM
NALM-6 Leukemia
  IC50: 3 µM

## CCCCCCCCCCCCC(O)c1nccs1 (centres unmarked) [AC-13]
MOLT-3 Lymphoma
  IC50: 4 µM
NALM-6 Leukemia
  IC50: > 250 µM

## CCCCCCCCCCCCC(O)c1ccc(Br)s1 (centres unmarked) [AC-11]
MOLT-3 Lymphoma
  IC50: 2 µM
NALM-6 Leukemia
  IC50: 4 µM

## CCCCCCCCCCCCC(O)c1ccc(C=O)s1 (centres unmarked) [AC-12]
MOLT-3 Lymphoma
  IC50: 33 µM
NALM-6 Leukemia
  IC50: 6 µM

## CCCCCCCCCCCCC(O)c1ccccn1 (centres unmarked) [AC-17]
MOLT-3 Lymphoma
  IC50: 246 µM
NALM-6 Leukemia
  IC50: 221 µM

## CCCCCCCCCCCCC(O)c1cccc(C)n1 (centres unmarked) [AC-16]
MOLT-3 Lymphoma
  IC50: > 250 µM
NALM-6 Leukemia
  IC50: 236 µM

## CCCCCCCCCCCCC(O)c1ccc(-c2ccccc2Cl)o1 (centres unmarked) [AC-7]
MOLT-3 Lymphoma
  IC50: > 250 µM
NALM-6 Leukemia
  IC50: > 250 µM

## CCCCCCCCCCCCC(O)c1ccco1 (centres unmarked) [AC-6]
MOLT-3 Lymphoma
  IC50: > 250 µM
NALM-6 Leukemia
  IC50: 229 µM
